Test results reported in US20160304552A1, “MODIFIED NUCLEIC ACID MOLECULES AND USES THEREOF” (MODERNA THERAPEUTICS, INC., priority 2013, published 2016).

Legend:
[1] = test system: Rabbit Reticulocyte Lysate; experiment: In vitro translation screen, human EPO modRNA (EPO ELISA); assay type: biochemical; conditions: Table 20; 250 ng modRNA, 45 min, 30° C.
Method: (§1) The in vitro translation assay was done with the Rabbit Reticulocyte Lysate (nuclease-treated) kit (Promega, Madison, Wis.; Cat. #L4960) according to the manufacturer's instructions. The reaction buffer was a mixture of equal amounts of the amino acid stock solutions devoid of Leucine or Methionine provided in the kit.
(§2) The modRNAs of firefly Luciferase, human GCSF and human EPO, harboring chemical modifications on either the bases or the ribose units, were diluted in sterile nuclease-free water to a final concentration of 250 ng in 2.5 ul (Stock 100 ng/μl). The modRNA (250 ng) was added to the mixture of freshly prepared Rabbit Reticulocyte Lysate and reaction buffer.
(§3) Aliquots of the in vitro translation reaction containing human GCSF modRNA or human EPO mRNA were transferred and analyzed with a human GCSF-specific or EPO ELISA kit (both from R&D Systems, Minneapolis, Minn.; Cat. #s SCS50, DEP00 respectively) according to the manufacturer instructions. All samples were diluted until the determined values were within the linear range of the human GCSF or EPO ELISA standard curve.

[2] = test system: Rabbit Reticulocyte Lysate; experiment: In vitro translation screen, human GCSF modRNA (GCSF ELISA); assay type: biochemical; conditions: Table 20; 250 ng modRNA, 45 min, 30° C.
Method: as §1, §2, §3

HeLa cells [3] = experiment: Transfection in HeLa cells, human EPO modRNA (EPO ELISA of supernatant); assay type: cell-based; conditions: Table 22, 18 h to 22 h
Method: (§4) The day before transfection, 20.000 HeLa cells (ATCC no. CCL-2; Manassas, Va.) were harvested by treatment with Trypsin-EDTA solution (LifeTechnologies, Grand Island, N.Y.) and seeded in a total volume of 100 ul EMEM medium (supplemented with 10% FCS and 1× Glutamax) per well in a 96-well cell culture plate (Corning, Manassas, Va.). The cells were grown at 37° C. in 5% CO2 atmosphere overnight. Next day, 83 ng of Luciferase modRNA or 250 ng of human GCSF modRNA, harboring chemical modifications on the bases or the ribose units, were diluted in 10 ul final volume of OPTI-MEM (LifeTechnologies, Grand Island, N.Y.). Lipofectamine 2000 (LifeTechnologies, Grand Island, N.Y.) was used as transfection reagent and 0.2 μl were diluted in 10 ul final volume of OPTI-MEM. After 5 min incubation at room temperature, both solutions were combined and incubated additional 15 min at room temperature. Then the 20 μl were added to the 100 ul cell culture medium containing the HeLa cells. The plates were then incubated as described before.
(§5) After 18 h to 22 h incubation, cell culture supernatants of cells expressing human GCSF or human EPO were collected and centrifuged at 10.000 rcf for 2 min. The cleared supernatants were transferred and analyzed with a human GCSF-specific or EPO ELISA kit (both from R&D Systems, Minneapolis, Minn.; Cat. #s SCS50, DEP00, respectively) according to the manufacturer instructions. All samples were diluted until the determined values were within the linear range of the human GCSF or EPO ELISA standard curve.

T7 RNA polymerase = T7 RNA polymerase (Escherichia phage T7, UniProt P00573); experiment: In vitro transcription yields of modified mRNA; assay type: biochemical; conditions: for EPO In Vitro Transcription yield: EPO mRNA made with the modified NTP(s); for GCSF In Vitro Transcription yield: GCSF mRNA made with the modified NTP(s); for Luc In Vitro Transcription yield: Luciferase mRNA made with the modified NTP(s)
Method: The in vitro transcription reaction generates mRNA containing modified nucleotides or modified RNA. The input nucleotide triphosphate (NTP) mix is made in-house using natural and unnatural NTPs.
A typical in vitro transcription reaction includes the following:
Incubation at 37° C. for 3 hr-5 hrs.
The crude IVT mix may be stored at 4° C. overnight for cleanup the next day. 1 U of RNase-free DNase is then used to digest the original template. After 15 minutes of incubation at 37° C., the mRNA is purified using Ambion's […]™ Kit (Austin, Tex.) following the manufacturer's instructions. This kit can purify up to 500 μg of RNA. Following the cleanup, the RNA is quantified using the NanoDrop and analyzed by agarose gel electrophoresis to confirm the RNA is the proper size and that no degradation of the RNA has occurred.
Modified mRNAs in TE buffer (1 μl) are used for Nanodrop UV absorbance readings to quantitate the yield of each modified mRNA from an in vitro transcription reaction (UV absorbance traces are not shown).

[4] = test system: Rabbit Reticulocyte Lysate; experiment: In vitro translation screen, firefly Luciferase modRNA (luciferase assay, relative light units); assay type: biochemical; conditions: Table 20; 250 ng modRNA, 45 min, 30° C.
Method: as §1, §2
After 45 min incubation, the reaction was stopped by placing the plate on ice. Aliquots of the in vitro translation reaction containing luciferase modRNA were transferred to white opaque polystyrene 96-well plates (Corning, Manassas, Va.; Cat. # CLS3912) and combined with 100 ul complete luciferase assay solution (Promega, Madison, Wis.). The volumes of the in vitro translation reactions were adjusted or diluted until no more than 2 million relative light units per well were detected for the strongest signal producing samples. […] The plate reader was a BioTek Synergy H1 (BioTek, Winooski, Vt.).

HeLa cells [5] = experiment: Transfection in HeLa cells, human GCSF modRNA (GCSF ELISA of supernatant); assay type: cell-based; conditions: Table 22, 250 ng modRNA, 18 h to 22 h
Method: as §4, §5

HeLa cells [6] = experiment: Transfection in HeLa cells, Luciferase modRNA (luciferase assay, relative light units); assay type: cell-based, human; conditions: Table 22, 83 ng modRNA, Lipofectamine 2000, 18 h to 22 h
Method: as §4
After 18 h to 22 h incubation, cells expressing luciferase were lysed with 100 μl Passive Lysis Buffer (Promega, Madison, Wis.) according to manufacturer instructions. Aliquots of the lysates were transferred to white opaque polystyrene 96-well plates (Corning, Manassas, Va.) and combined with 100 ul complete luciferase assay solution (Promega, Madison, Wis.). The lysate volumes were adjusted or diluted until no more than 2 mio relative light units per well were detected for the strongest signal producing samples. […] The plate reader was a BioTek Synergy H1 (BioTek, Winooski, Vt.).

Chain of T7 RNA polymerase (P00573 whole entry): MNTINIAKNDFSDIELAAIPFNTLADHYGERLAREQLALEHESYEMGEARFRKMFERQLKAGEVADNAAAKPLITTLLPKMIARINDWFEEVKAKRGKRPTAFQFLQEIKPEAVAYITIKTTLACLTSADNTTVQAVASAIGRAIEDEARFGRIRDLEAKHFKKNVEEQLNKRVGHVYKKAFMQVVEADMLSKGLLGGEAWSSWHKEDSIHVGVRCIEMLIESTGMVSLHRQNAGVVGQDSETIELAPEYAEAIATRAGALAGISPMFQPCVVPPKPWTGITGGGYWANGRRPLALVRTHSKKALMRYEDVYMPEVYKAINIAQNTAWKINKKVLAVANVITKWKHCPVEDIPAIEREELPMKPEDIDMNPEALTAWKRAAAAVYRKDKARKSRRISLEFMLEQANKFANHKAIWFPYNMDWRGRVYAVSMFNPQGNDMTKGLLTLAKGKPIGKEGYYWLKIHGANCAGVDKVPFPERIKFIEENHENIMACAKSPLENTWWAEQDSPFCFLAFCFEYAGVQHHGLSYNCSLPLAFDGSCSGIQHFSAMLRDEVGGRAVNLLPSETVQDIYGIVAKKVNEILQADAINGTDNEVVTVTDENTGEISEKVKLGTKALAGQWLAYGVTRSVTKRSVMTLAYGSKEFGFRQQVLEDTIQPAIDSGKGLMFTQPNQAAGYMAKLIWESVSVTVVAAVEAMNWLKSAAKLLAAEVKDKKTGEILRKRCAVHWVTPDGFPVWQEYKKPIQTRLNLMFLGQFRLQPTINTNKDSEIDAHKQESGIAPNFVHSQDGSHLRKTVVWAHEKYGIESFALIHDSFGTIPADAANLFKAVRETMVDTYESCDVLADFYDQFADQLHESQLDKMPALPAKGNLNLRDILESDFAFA

Row | Structure (SMILES) | Epo Expression [1] | GCSF Expression [2] | Epo Expression (HeLa cells [3]) | EPO In Vitro Transcription yield (T7 RNA polymerase) | GCSF In Vitro Transcription yield (T7 RNA polymerase) | Luc In Vitro Transcription yield (T7 RNA polymerase) | Luc Expression (RLUs) [4] | GCSF Expression (HeLa cells [5]) | Luc Expression (RLUs) (HeLa cells [6])
1 | Cc1cn([C@@H]2O[C@H](COP(=O)(O)OP(=O)(O)OP(=O)(O)O)C(O)C2O)c(=S)[nH]c1=O (stereo in doubt) [00901013004 (4), 5-Methyl-2-thio-UTP] | 1100 pg/mL | 2319 pg/mL | 8333 pg/mL | 0.8717 mg | 0.4682 mg | 0.7580 mg | 235 RLUs | 16420 pg/mL | –
2 | COC(=O)COc1cn([C@@H]2O[C@H](COP(=O)(O)OP(=O)(O)OP(=O)(O)O)C(O)C2O)c(=O)[nH]c1=O (stereo in doubt) [00901013004 (348), UTP-5-oxyacetic acid Me ester] | 544 pg/mL | 4388 pg/mL | 8333 pg/mL | 0.3859 mg | 0.3836 mg | 0.6348 mg | 162 RLUs | 5714 pg/mL | –
3 | COC(=O)Cc1cn([C@@H]2O[C@H](COP(=O)(O)OP(=O)(O)OP(=O)(O)O)C(O)C2O)c(=O)[nH]c1=O (stereo in doubt) [00901013005 (358), 5-Methoxy carbonyl methyl-UTP] | – | – | 8333 pg/mL | 0.6432 mg | 0.6475 mg | 0.8825 mg | – | – | –
4 | Nc1nc(=O)n([C@@H]2O[C@H](COP(=O)(O)OP(=O)(O)OP(=O)(O)O)C(O)C2O)cc1C(F)(F)F (stereo in doubt) [00901014003 (351), 5-Trifluoromethyl-CTP] | 10200 pg/mL | 31510 pg/mL | 668100 pg/mL | 0.7886 mg | 0.7710 mg | 0.5097 mg | 23340 RLUs | 1039000 pg/mL | 32250 RLUs
5 | CNc1ccn([C@@H]2O[C@H](COP(=O)(O)OP(=O)(O)OP(=O)(O)O)C(O)C2O)c(=O)n1 (stereo in doubt) [00901014004 (346), N4-methyl CTP] | – | – | 90280 pg/mL | 1.154 mg | 0.9028 mg | 1.124 mg | – | – | –
6 | Nc1ncc2ncn([C@@H]3O[C@H](COP(=O)(O)OP(=O)(O)OP(=O)(O)O)C(O)C3O)c2n1 (stereo in doubt) [03601012004 (382), 2-Aminopurine-riboside TP] | 22180 pg/mL | 8675 pg/mL | 56980 pg/mL | 0.0125 mg | 0.2919 mg | 0.0690 mg | 107000 RLUs | 39290 pg/mL | 713.50 RLUs
7 | CCCn1cc([C@@H]2O[C@H](COP(=O)(O)OP(=O)(O)OP(=O)(O)O)C(O)C2O)c(=O)[nH]c1=O (stereo in doubt) [03601015004 (173), 1-Propyl-pseudo-UTP] | 838 pg/mL | 1613 pg/mL | 0.00 pg/mL | 0.9920 mg | 0.5976 mg | 0.4971 mg | 140 RLUs | 10000 pg/mL | –
